Measurements taken from patent US20240398828A1, “HETERO-ATOM CONTAINING COMPOUNDS AND USES THEREOF” (Kumquat Biosciences Inc., priority 2021, published 2024).

Tests used:
[1] = biological target: T1, PTPN1 (i.e., PTP1B) (Homo sapiens, UniProt P18031); test: Phosphatase activity assay (DiFMUP substrate), PTP1B; type: biochemical; conditions: compounds binned ≤1 uM or >1 uM
T1 sequence (P18031 1-435): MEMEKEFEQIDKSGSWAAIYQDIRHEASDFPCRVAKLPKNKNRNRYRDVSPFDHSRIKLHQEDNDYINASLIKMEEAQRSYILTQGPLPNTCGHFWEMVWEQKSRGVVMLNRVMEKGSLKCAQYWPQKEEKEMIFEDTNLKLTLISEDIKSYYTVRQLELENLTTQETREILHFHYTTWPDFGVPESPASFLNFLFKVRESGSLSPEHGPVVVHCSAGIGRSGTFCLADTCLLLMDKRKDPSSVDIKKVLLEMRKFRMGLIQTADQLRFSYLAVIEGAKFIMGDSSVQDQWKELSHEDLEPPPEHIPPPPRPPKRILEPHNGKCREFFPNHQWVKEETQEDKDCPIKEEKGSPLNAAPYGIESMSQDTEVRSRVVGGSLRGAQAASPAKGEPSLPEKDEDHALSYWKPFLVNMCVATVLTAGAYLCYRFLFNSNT
Method: (§1) The selectivity and potency of a small molecule PTPN2 inhibitor as provided herein against one or more protein tyrosine phosphatase (PTP) enzymes, and specifically against PTPN2, is assessed in various ways. The one or more PTP enzymes comprise Mycobacterium protein tyrosine phosphatase A (mPTPA), Mycobacterium protein tyrosine phosphatase B (mPTPB), PTPN1 (i.e., PTP1B), PTPN2 (i.e., TC-PTP), PTPN22 (i.e., LYP), SHP-1, SHP-2, FAP-1, Meg2, HePTP, Laforin, VHX, VHR, LMWPTP, Cdc14A, LAR, CD45, PTPRG, a fragment thereof, a variant thereof, and a combination thereof. Selectivity and potency of a small molecule PTPN2 inhibitor is evaluated using a PTP activity inhibition assay. The assay is performed using a buffer comprising 50 mM HEPES buffer pH 7.5, 150 mM NaCl, 0.5 mM EDTA, 1 mM DTT, 0.001% Tween-20.
(§2) The assay is performed using a phosphated substrate, e.g., 10 mM 6,8-Difluoro-4-Methylumbelliferyl Phosphate (DIFMUP) that is stored at −20° C. Alternatively or in addition to, the assay is performed using other phosphated substrate (e.g., fluorescein diphosphate). Each PTP enzyme is diluted in the assay buffer
(§3) The assay can be carried out at room temperature in multiplate format, e.g., using 384 well plates. A small molecule PTPN2 inhibitor dissolved in DMSO at one of 10 concentrations from a serial dilution or DMSO alone for control is added to each well. A mixture of the assay buffer comprising PTP enzyme (e.g., 0.025 ng/ul PTPN2) is added to each well and mixed for approximately 2 minutes. The reaction is initiated by adding DiFMUP diluted in the assay buffer to a final concentration of approximately 45 μM DiFMUP in PTPN2 assay. For each PTP enzyme, DiFMUP is added at the Km (Michaelis constant) of the enzyme that had been independently determined. The phosphatase activity of the PTP enzyme is assessed by monitoring appearance of a fluorescent product (6,8-difluoro-7-hydroxyl-4-coumarin (DiFMU) from DiFMUP) continuously for about 15 to 30 minutes, using the INFINITE M1000Pro plate reader (Tecan) with excitation at 360 nm and emission at 450 nm (cutoff filter at 435 nm) for DiFMU. Each assay is performed at least in duplicate. The rate (e.g., the initial rate) of DiFMU formation is plotted against the concentration of the small molecule PTPN2 inhibitor, and the data is fitted (e.g., using a 4-parameter equation) to determine the inflection point of the fit as the IC50 of the small molecule PTPN2 inhibitor for a specific enzyme. Utilizing this assay, the ability of the compounds in Table 2 to inhibit PTPN2 and PTP1B has been assessed. Table 3 summarizes the IC50 values.

[2] = biological target: T2, PTPN2 (i.e., TC-PTP) (Homo sapiens, UniProt P17706); test: Phosphatase activity assay (DiFMUP substrate), PTPN2; type: biochemical; conditions: compounds binned ≤1 uM or >1 uM
T2 sequence (P17706 1-415): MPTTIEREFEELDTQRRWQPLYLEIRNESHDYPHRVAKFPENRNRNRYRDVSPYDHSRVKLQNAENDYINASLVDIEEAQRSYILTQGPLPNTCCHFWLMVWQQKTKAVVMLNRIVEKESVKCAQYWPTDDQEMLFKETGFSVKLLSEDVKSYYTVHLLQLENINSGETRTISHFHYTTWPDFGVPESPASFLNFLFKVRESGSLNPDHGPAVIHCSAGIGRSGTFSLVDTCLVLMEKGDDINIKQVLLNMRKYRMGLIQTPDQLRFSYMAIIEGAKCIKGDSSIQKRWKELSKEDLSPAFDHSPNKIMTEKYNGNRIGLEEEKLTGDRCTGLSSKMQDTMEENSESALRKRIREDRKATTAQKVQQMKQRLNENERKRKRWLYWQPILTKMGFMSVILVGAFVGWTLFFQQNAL
Method: as §1, §2, §3

Structure (SMILES) | IC50 [1] [nM] | IC50 [2] [nM]
CS(=O)(=O)n1nc(C2CC2)cc1-c1ccc(O)c(N2CC(=O)NS2(=O)=O)c1F [Compound 495, 5-(3-(3-cyclopropyl-1-(methylsulfonyl)-1H-pyrazol-5-yl)-2-fluoro-6-hydroxyphenyl)-1,2,5-thiadiazolidin-3-one 1,1-dioxide] | ≤ 1000 | ≤ 1000
CC(=O)N(C)C1CCC=C(c2ccc(O)c(N3CC(=O)NS3(=O)=O)c2F)C1 (stereo not drawn) [Compound 232, N-(3′-(1,1-dioxido-4-oxo-1,2,5-thiadiazolidin-2-yl)-2′-fluoro-4′-hydroxy-2,3,4,5-tetrahydro-[1,1′-biphenyl]-3-yl)-N-methylacetamide] | ≤ 1000 | ≤ 1000
CN(C)c1cc(-c2ccc(O)c(N3CC(=O)NS3(=O)=O)c2F)[nH]n1 [Compound 300, 5-(3-(3-(dimethylamino)-1H-pyrazol-5-yl)-2-fluoro-6-hydroxyphenyl)-1,2,5-thiadiazolidin-3-one 1,1-dioxide] | ≤ 1000 | ≤ 1000
O=C1CN(c2c(O)ccc(-c3cnn(C(F)(F)F)c3)c2F)S(=O)(=O)N1 [Compound 264, 5-(2-fluoro-6-hydroxy-3-(1-(trifluoromethyl)-1H-pyrazol-4-yl)phenyl)-1,2,5-thiadiazolidin-3-one 1,1-dioxide] | ≤ 1000 | ≤ 1000
O=C1CN(c2c(O)ccc(-c3cn(Cc4cccc(F)c4)cn3)c2F)S(=O)(=O)N1 [Compound 200, 5-(2-fluoro-3-(1-(3-fluorobenzyl)-1H-imidazol-4-yl)-6-hydroxyphenyl)-1,2,5-thiadiazolidin-3-one 1,1-dioxide] | ≤ 1000 | ≤ 1000
CC(C)CCn1ccc(-c2ccc(O)c(N3CC(=O)NS3(=O)=O)c2F)c1 [Compound 125, 5-(2-fluoro-6-hydroxy-3-(1-isopentyl-1H-pyrrol-3-yl)phenyl)-1,2,5-thiadiazolidin-3-one 1,1-dioxide] | ≤ 1000 | ≤ 1000
Cc1cnn(-c2ccc(O)c(N3CC(=O)NS3(=O)=O)c2F)c1 [Compound 386, 5-(2-fluoro-6-hydroxy-3-(4-methyl-1H-pyrazol-1-yl)phenyl)-1,2,5-thiadiazolidin-3-one 1,1-dioxide] | ≤ 1000 | ≤ 1000
CC1CCC(n2cc(-c3ccc(O)c(N4CC(=O)NS4(=O)=O)c3F)cn2)CC1 (stereo not drawn) [Compound 304, 5-(2-fluoro-6-hydroxy-3-(1-(4-methylcyclohexyl)-1H-pyrazol-4-yl)phenyl)-1,2,5-thiadiazolidin-3-one 1,1-dioxide] | ≤ 1000 | ≤ 1000
CN1CC2(C1)CN(c1cc(-c3ccc(O)c(N4CC(=O)NS4(=O)=O)c3F)[nH]n1)C2 [Compound 252, 5-(2-fluoro-6-hydroxy-3-(3-(6-methyl-2,6-diazaspiro[3.3]heptan-2-yl)-1H-pyrazol-5-yl)phenyl)-1,2,5-thiadiazolidin-3-one 1,1-dioxide] | ≤ 1000 | ≤ 1000
O=C1CN(c2c(O)ccc(-c3cnn(Cc4ccc(C(F)(F)F)cc4)c3)c2F)S(=O)(=O)N1 [Compound 217, 5-(2-fluoro-6-hydroxy-3-(1-(4-(trifluoromethyl)benzyl)-1H-pyrazol-4-yl)phenyl)-1,2,5-thiadiazolidin-3-one 1,1-dioxide] | ≤ 1000 | ≤ 1000
O=C1CN(c2c(O)ccc(-c3cn(C4CC4)[nH]c3=O)c2F)S(=O)(=O)N1 [Compound 245, 5-(3-(1-cyclopropyl-3-oxo-2,3-dihydro-1H-pyrazol-4-yl)-2-fluoro-6-hydroxyphenyl)-1,2,5-thiadiazolidin-3-one 1,1-dioxide] | ≤ 1000 | ≤ 1000
Cn1nc(-c2ccc(O)c(N3CC(=O)NS3(=O)=O)c2F)cc1C1CCCN1 (stereo not drawn) [Compound 468, 5-(2-fluoro-6-hydroxy-3-(1-methyl-5-(pyrrolidin-2-yl)-1H-pyrazol-3-yl)phenyl)-1,2,5-thiadiazolidin-3-one 1,1-dioxide] | ≤ 1000 | > 1000
O=C1CN(c2c(O)ccc(C3=CCN(CC(F)(F)F)CC3)c2F)S(=O)(=O)N1 [Compound 393, 5-(2-fluoro-6-hydroxy-3-(1-(2,2,2-trifluoroethyl)-1,2,3,6-tetrahydropyridin-4-yl)phenyl)-1,2,5-thiadiazolidin-3-one 1,1-dioxide] | ≤ 1000 | ≤ 1000

Now from value to compound:

IC50 [1] [nM] | IC50 [2] [nM] | Structure (SMILES)
≤ 1000 | ≤ 1000 | CN(C)c1ccc(-c2ccc(O)c(N3CC(=O)NS3(=O)=O)c2F)cn1 [Compound 208, 5-(3-(6-(dimethylamino)pyridin-3-yl)-2-fluoro-6-hydroxyphenyl)-1,2,5-thiadiazolidin-3-one 1,1-dioxide]
≤ 1000 | ≤ 1000 | Cn1nc(-c2ccc(O)c(N3CC(=O)NS3(=O)=O)c2F)cc1C1(N)CC1 [Compound 345, 5-(3-(5-(1-aminocyclopropyl)-1-methyl-1H-pyrazol-3-yl)-2-fluoro-6-hydroxyphenyl)-1,2,5-thiadiazolidin-3-one 1,1-dioxide]
≤ 1000 | ≤ 1000 | O=C1CN(c2c(O)ccc(-c3cnn(C4CCC(F)(F)CC4)c3)c2F)S(=O)(=O)N1 [Compound 446, 5-(3-(1-(4,4-difluorocyclohexyl)-1H-pyrazol-4-yl)-2-fluoro-6-hydroxyphenyl)-1,2,5-thiadiazolidin-3-one 1,1-dioxide]
≤ 1000 | ≤ 1000 | Cn1cc(-c2ccc(O)c(N3CC(=O)NS3(=O)=O)c2Cl)cn1 [Compound 311, 5-(2-chloro-6-hydroxy-3-(1-methyl-1H-pyrazol-4-yl)phenyl)-1,2,5-thiadiazolidin-3-one 1,1-dioxide]
≤ 1000 | ≤ 1000 | CCCCC1C=C(c2ccc(O)c(N3CC(=O)NS3(=O)=O)c2F)CN1 (stereo not drawn) [Compound 523, 5-(3-(5-butyl-2,5-dihydro-1H-pyrrol-3-yl)-2-fluoro-6-hydroxyphenyl)-1,2,5-thiadiazolidin-3-one 1,1-dioxide]
≤ 1000 | ≤ 1000 | O=C1CN(c2c(O)ccc(C3=CC(=O)OC3)c2F)S(=O)(=O)N1 [Compound 513, 5-(2-fluoro-6-hydroxy-3-(5-oxo-2,5-dihydrofuran-3-yl)phenyl)-1,2,5-thiadiazolidin-3-one 1,1-dioxide]
≤ 1000 | ≤ 1000 | O=C1CN(c2c(O)ccc(-c3cc(C4CC4)n(CC4CCNC4)n3)c2F)S(=O)(=O)N1 (stereo not drawn) [Compound 329, 5-(3-(5-cyclopropyl-1-(pyrrolidin-3-ylmethyl)-1H-pyrazol-3-yl)-2-fluoro-6-hydroxyphenyl)-1,2,5-thiadiazolidin-3-one 1,1-dioxide]
≤ 1000 | ≤ 1000 | O=C1CN(c2c(O)ccc(-c3cc(C(F)(F)F)n[nH]3)c2F)S(=O)(=O)N1 [Compound 247, 5-(2-fluoro-6-hydroxy-3-(3-(trifluoromethyl)-1H-pyrazol-5-yl)phenyl)-1,2,5-thiadiazolidin-3-one 1,1-dioxide]
